Experimental data reported in US20090176772A1, “METHOD OF REVERSING LEFT VENTRICULAR REMODELING” (priority 2004, published 2009).

Legend:
Assay type in all cases: in vivo, dog
[1] = system: dogs with chronic heart failure produced by multiple sequential intracoronary microembolizations; assay: Ventriculographic measurements (LV volumes, ejection fraction) in dogs with chronic heart failure
Description: (§1) The following example examines the effects of ranolazine alone and in combination with an angiotensin converting enzyme (ACE) inhibitor and in combination with a beta-blocker on the progression of left ventricular (LV) dysfunction and LV chamber remodeling in dogs with chronic heart failure produced by multiple sequential intracoronary microembolizations.
(§2) Chronic LV dysfunction and failure in dogs was produced by multiple sequential intracoronary embolizations with polystyrene Latex microspheres (77-109 μm in diameter) as previously described by Sabbah et al. (1991) Am. J. Physiol. 260:H1379-H1384. Coronary microembolizations were performed during cardiac catheterization under general anesthesia and sterile conditions. Anesthesia was induced using a combination of intravenous injections of hydromorphone (0.22 mg/kg), diazepam (0.2-0.6 mg/kg) and sodium pentobarbital 50-100 mg to effect. Plane of anesthesia was maintained throughout the study using 1% to 2% isoflurane. Left and right heart catheterization was performed via a femoral arteriotomy and venotomy. After each catheterization, the vessels were repaired using 6-0 silk and the skin closed with 4-0 suture. Microembolizations were discontinued when LV ejection fraction, determined angiographically, was between 30% and 40%. A period of 2 weeks was allowed after the last embolization to ensure that infarctions produced by the last microembolizations have completely healed and heart failure was established. The study protocol was then performed.
(§3) Healthy, conditioned, purpose-bred mongrel dogs weighing between 19 and 25 kg.
(§4) A randomized, blinded, placebo controlled study design was used. A total of 28 dogs underwent multiple sequential intracoronary microembolizations as described above to produce chronic heart failure. Two weeks after the last embolization, dogs were randomized into 4 study groups (treatment arms). Dogs were randomized to 3 months oral therapy with ranolazine alone (375 mg, bid, n=7), ranolazine (375 mg bid) in combination with metoprolol tartrate (25 mg bid, n=7), ranolazine (375 mg bid) in combination with enalapril (10 mg bid, n=7), or placebo (ranolazine vehicle bid, n=7). Hemodynamic, angiographic, echocardiographic, Doppler and neurohumoral measurements were made prior to randomization (2 weeks after the last embolization) and after completion of therapy (3 months after initiating therapy). After completing the final hemodynamic and angiographic study, dogs were euthanized and the hearts removed and tissue prepared and saved for future histological and biochemical evaluations. The study primary and secondary end-points were as follows:
Left ventriculograms were performed during cardiac catheterization after completion of the hemodynamic measurements. Ventriculograms were performed with the dog placed on its right side and were recorded on 35 mm cine at 30 frames per second during a power injection of 20 ml of contrast material (RENO-M-60, Squibb Diagnostics). Correction for image magnification was made using a radiopaque grid placed at the level of the LV. LV end-systolic and end-diastolic volumes were calculated from angiographic silhouettes using the area length method (4). Premature beats and postextrasystolic beats were excluded from any analysis. LV ejection fraction was calculated as the ratio of the difference of end-diastolic and end-systolic volumes to end-diastolic volume times 100. Stroke volume was calculated as the difference between LV end-diastolic and end-systolic volumes. Cardiac output was calculated as the stroke volume times heart rate and cardiac index as the cardiac output divided by body surface area.
To ensure that all study measures were similar at baseline, comparisons were made between all 4 study groups before any embolizations and at the time of randomization before initiation of therapy. For these comparisons, a one way analysis of variance (ANOVA) was used with a set at 0.05. […]

[2] = system: dogs with chronic heart failure produced by multiple sequential intracoronary microembolizations; assay: Histomorphometric evaluations of LV tissue of dogs with chronic heart failure
Description: as §1, §2, §3, §4
On the day of sacrifice, after completion of all hemodynamic and angiographic studies, the dog's chest was opened through a left thoracotomy, the pericardium was opened and the heart rapidly removed and placed in ice-cold, Tris buffer (pH 7.4). Three 2 mm thick transverse slices were obtained from the LV; one slice from the basal third, one from the middle third and one from the apical third and placed in 10% formalin. Transmural blocks were also obtained and rapidly frozen in isopentane cooled to −160° C. by liquid nitrogen and stored at −70° C. until needed. LV tissue samples were also obtained and stored in gluteraldehyde for future scanning and transmission electron microscopic studies.
From each heart, 3 transverse slices one from the basal third, middle third and apical third of the LV, each […], were obtained. For comparison, tissue samples from 7 normal dogs were obtained and prepared in an identical manner. From each transverse slice, transmural tissue blocks were obtained and embedded in paraffin blocks. From each block, 6 μm thick sections were prepared and stained with Gomori trichrome to identify fibrous tissue. […]

[3] = system: dogs with chronic heart failure produced by multiple sequential intracoronary microembolizations; assay: Echocardiographic and Doppler measurements in dogs with chronic heart failure; conditions: mean±SEM
Description: as §1, §2, §3, §4
Echocardiographic and Doppler studies were performed in all dogs at all specified study time points using a 77030A ultrasound system (Hewlett-Packard) with a 3.5 MHZ transducer. All echocardiographic measurements were made with the dog placed in the right lateral decubitus position and recorded on a Panasonic 6300 VHS recorder for subsequent off-line analysis. Transverse 2-dimensional echocardiograms were obtained at the level of the LV papillary muscle and were used to calculate LV fractional area of shortening. The latter was calculated as the end-diastolic LV cavity area minus the end-systolic cavity area divided by the end-diastolic cavity area times 100. Two chamber view 2-dimensional echocardiograms were also obtained to ascertain LV major and minor semiaxes to be used for calculation of LV end-diastolic circumferential wall stress. Wall stress was calculated as follows: Stress=Pb/h(1−h/2b)(1−hb/2a2), where P is LV end-diastolic pressure, a is LV major semiaxis, b is LV minor semiaxis, and h is LV wall thickness.
Mitral inflow velocity was measured by pulsed-wave Doppler echocardiography. The velocity waveforms were used to calculate peak mitral flow velocity in early diastole (PE), peak mitral inflow velocity during LA contraction (PA), the ratio of PE to PA and early mitral inflow deceleration time. […]

[4] = POST: after 3 months of oral therapy bid, mean±SEM
[5] = PRE: at time of randomization, before therapy, mean±SEM
[6] = at the end of 3 months of treatment
[7] = change from pre-treatment to post-treatment (3 months), mean±SEM
[8] = POST: after 3 months of oral therapy bid
[9] = PRE: at time of randomization, before therapy
[10] = change from pre-treatment to post-treatment (3 months)

## COc1ccccc1OCC(O)CN1CCN(CC(=O)Nc2c(C)cccc2C)CC1 (racemic) [RAN Alone, (±)-N-(2,6-dimethylphenyl)-4-[2-hydroxy-3-(2-methoxyphenoxy)-propyl]-1-piperazineacetamide]
[1]; [4]
  CI = cardiac index: 2.3 ± 0.2 L/min/m^2
  CO = cardiac output: 1.91 ± .18 L/min
  EDV = LV end-diastolic volume: 65 ± 2 mL
  EF = LV ejection fraction: 37 ± 2 %
  ESV = LV end-systolic volume: 41 ± 2 mL
  SV = stroke volume: 24 ± 1 mL
[1]; [5]
  CI = cardiac index: 2.0 ± 0.2 L/min/m^2
  CO = cardiac output: 1.67 ± .11 L/min
  EDV = LV end-diastolic volume: 63 ± 3 mL
  EF = LV ejection fraction: 35 ± 1%
  ESV = LV end-systolic volume: 41 ± 2 mL
  SV = stroke volume: 22 ± 1 mL
[1]; [6]
  LV ejection fraction, intra-group comparison pre- vs post-treatment: increased significantly
  LV end-diastolic volume, intra-group comparison pre- vs post-treatment: remained unchanged
  LV end-systolic volume, intra-group comparison pre- vs post-treatment: remained unchanged
[1]; [7]
  Δ CI (cardiac index): 0.3 ± 0.1 L/min/m^2
  Δ CO (cardiac output): 0.24 ± .10 L/min
  Δ EDV (LV end-diastolic volume): 2 ± 1 mL
  Δ EF (LV ejection fraction): 2 ± 1 %
  Δ ESV (LV end-systolic volume): 0 ± 1 mL
  Δ SV (stroke volume): 2 ± 1 mL
[1]; data of Example 1
  Ability to reduce LV end-diastolic volume (FIG. 1): neither ranolazine, enalapril, nor metoprolol were independently able to reduce LV end-diastolic volume
  Ability to reduce LV end-systolic volume (FIG. 2): neither ranolazine, enalapril, nor metoprolol appear to independently reduce LV end-systolic volume
[2]; LV tissue after 3 months of therapy, mean±SEM, normal dogs 0 ± 0, placebo 14.6 ± 1.2
  VFRF = volume fraction of replacement fibrosis: 10.5 ± 2.1 %
[2]; LV tissue after 3 months of therapy, mean±SEM, normal dogs 3.7 ± 0.1, placebo 13.0 ± 0.7
  VFIF = volume fraction of interstitial fibrosis: 11.0 ± 0.4 %
[2]; LV tissue after 3 months of therapy, mean±SEM, normal dogs 8.9 ± 0.2, placebo 11.5 ± 0.3
  ODD = oxygen diffusion distance: 10.9 ± 0.2 μm
[2]; LV tissue after 3 months of therapy, mean±SEM, normal dogs 409 ± 10, placebo 772 ± 21
  MCSA = myocyte cross-sectional area: 685 ± 23 μm2
[2]; LV tissue after 3 months of therapy, mean±SEM, normal dogs 2607 ± 80, placebo 1706 ± 28
  CD = capillary density: 1832 ± 43 capillaries/mm2
[2]; after 3 months of therapy
  Histomorphometric measures (myocyte cross-sectional area, replacement and interstitial fibrosis, oxygen diffusion distance, capillary density) compared to placebo: significantly improved
[3]; [8]
  DT = deceleration time: 87 ± 4 ms
  EDWS = LV end-diastolic circumferential wall stress: 42 ± 4 gm-cm^2
  FAS = LV fractional area of shortening: 29 ± 2%
  MR = severity of mitral regurgitation: 10.1 ± 1.3%
  PE/PA (mitral inflow velocity ratio): 2.8 ± 0.3
[3]; [9]
  DT = deceleration time: 88 ± 3 ms
  EDWS = LV end-diastolic circumferential wall stress: 56 ± 5 gm-cm^2
  FAS = LV fractional area of shortening: 28 ± 1%
  MR = severity of mitral regurgitation: 11.3 ± 1.9%
  PE/PA (mitral inflow velocity ratio): 2.7 ± 0.3
[3]; [10]
  Δ DT (deceleration time): -1 ± 4 ms
  Δ EDWS (LV end-diastolic circumferential wall stress): −14.5 ± 5.2 gm-cm^2
  Δ FAS (LV fractional area of shortening): 1 ± 1 %
  Δ MR (severity of mitral regurgitation): −1.2 ± 1.1%
  Δ PE/PA: 0.0 ± 0.4
